Laboratory results: publication PMC9127186, “Molecular Basis Underlying Hepatobiliary and Renal Excretion of Phenolic Acids of Salvia miltiorrhiza Roots (Danshen)” (Frontiers in Pharmacology, 2022)

Legend:
rat Pept2 = target: T1, rat Pept2 (Rattus norvegicus, UniProt Q63424); conditions: 10 min, 100 μM, pH 6
T1 sequence (Q63424 1-729): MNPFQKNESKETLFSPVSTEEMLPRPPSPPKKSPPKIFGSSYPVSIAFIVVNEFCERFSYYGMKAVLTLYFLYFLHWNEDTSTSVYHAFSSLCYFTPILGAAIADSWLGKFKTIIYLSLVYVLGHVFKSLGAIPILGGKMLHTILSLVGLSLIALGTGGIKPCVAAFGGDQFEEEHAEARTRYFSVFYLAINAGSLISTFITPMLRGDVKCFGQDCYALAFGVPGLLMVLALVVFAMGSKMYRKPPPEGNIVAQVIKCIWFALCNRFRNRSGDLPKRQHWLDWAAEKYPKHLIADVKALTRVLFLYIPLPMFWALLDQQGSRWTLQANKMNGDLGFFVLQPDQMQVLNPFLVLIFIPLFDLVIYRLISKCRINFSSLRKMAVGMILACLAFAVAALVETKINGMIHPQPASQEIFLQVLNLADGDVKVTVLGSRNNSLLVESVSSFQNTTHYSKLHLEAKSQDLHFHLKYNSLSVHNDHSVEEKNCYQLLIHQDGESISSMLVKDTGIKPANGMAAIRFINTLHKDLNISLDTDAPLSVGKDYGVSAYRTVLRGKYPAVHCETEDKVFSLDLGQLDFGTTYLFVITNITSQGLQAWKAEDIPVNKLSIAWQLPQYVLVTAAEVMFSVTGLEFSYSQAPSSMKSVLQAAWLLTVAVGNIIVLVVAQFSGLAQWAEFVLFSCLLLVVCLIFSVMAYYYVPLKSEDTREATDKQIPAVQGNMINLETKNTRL

human PEPT2 = target: T2, human PEPT2 (Homo sapiens, UniProt Q16348); conditions: 10 min, 100 μM, pH 6
T2 sequence (Q16348 1-729): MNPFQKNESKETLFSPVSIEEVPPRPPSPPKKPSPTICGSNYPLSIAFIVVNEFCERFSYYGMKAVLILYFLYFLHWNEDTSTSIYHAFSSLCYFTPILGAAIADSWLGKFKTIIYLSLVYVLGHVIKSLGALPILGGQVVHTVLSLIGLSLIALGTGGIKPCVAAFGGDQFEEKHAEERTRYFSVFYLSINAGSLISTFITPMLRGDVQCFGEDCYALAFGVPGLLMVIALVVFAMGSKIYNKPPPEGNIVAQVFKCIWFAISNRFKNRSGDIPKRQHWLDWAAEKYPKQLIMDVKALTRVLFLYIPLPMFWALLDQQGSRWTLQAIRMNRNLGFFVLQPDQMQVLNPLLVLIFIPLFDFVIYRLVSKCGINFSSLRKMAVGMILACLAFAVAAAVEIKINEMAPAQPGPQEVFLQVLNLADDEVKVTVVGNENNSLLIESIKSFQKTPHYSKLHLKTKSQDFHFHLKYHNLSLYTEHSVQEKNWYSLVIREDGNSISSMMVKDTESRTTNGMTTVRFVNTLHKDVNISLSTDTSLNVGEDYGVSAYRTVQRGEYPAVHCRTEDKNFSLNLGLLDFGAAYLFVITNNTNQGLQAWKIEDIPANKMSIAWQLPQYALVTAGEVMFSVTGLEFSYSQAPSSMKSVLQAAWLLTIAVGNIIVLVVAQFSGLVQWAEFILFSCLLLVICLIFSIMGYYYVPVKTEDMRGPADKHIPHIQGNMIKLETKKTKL

rat Oct1 = target: T3, rat Oct1 (Rattus norvegicus, UniProt Q63089); conditions: 10 min, 100 μM
T3 sequence (Q63089 1-556): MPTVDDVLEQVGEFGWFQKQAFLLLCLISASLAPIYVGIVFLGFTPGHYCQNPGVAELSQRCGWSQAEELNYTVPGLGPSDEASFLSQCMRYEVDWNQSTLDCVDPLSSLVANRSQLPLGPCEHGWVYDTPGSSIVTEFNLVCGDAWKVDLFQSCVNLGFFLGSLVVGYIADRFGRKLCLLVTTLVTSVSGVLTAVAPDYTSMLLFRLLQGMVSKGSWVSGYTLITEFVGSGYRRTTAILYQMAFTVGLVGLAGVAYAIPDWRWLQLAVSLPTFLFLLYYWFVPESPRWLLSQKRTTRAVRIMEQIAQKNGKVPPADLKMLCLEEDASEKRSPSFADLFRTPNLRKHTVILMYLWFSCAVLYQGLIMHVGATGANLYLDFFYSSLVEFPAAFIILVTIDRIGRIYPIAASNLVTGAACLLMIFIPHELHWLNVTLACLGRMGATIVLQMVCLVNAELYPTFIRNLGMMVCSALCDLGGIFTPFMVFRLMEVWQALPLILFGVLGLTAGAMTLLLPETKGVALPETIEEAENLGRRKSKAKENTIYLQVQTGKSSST

rat Octn2 = target: T4, rat Octn2 (Rattus norvegicus, UniProt O70594); conditions: 10 min, 100 μM
T4 sequence (O70594 1-557): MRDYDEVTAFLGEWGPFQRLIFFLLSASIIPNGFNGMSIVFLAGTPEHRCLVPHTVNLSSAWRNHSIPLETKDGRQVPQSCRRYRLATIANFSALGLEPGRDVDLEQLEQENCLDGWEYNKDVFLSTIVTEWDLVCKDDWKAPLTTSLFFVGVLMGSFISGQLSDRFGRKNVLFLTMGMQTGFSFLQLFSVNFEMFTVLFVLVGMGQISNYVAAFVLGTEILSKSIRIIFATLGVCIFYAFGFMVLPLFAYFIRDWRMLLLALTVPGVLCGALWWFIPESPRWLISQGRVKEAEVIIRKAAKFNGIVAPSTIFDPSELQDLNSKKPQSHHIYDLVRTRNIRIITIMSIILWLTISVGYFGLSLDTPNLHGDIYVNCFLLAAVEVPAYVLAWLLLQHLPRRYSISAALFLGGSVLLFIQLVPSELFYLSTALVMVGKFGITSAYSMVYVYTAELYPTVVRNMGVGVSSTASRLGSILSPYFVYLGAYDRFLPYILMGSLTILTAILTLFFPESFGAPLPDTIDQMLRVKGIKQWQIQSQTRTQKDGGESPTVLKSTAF

Compound	TransportTC/TransportMC ratio (net transport ratio) (rat Pept2)	TransportTC/TransportMC ratio (net transport ratio) (human PEPT2)	TransportTC/TransportMC ratio (net transport ratio) (rat Oct1)	TransportTC/TransportMC ratio (net transport ratio) (rat Octn2)
O=C(/C=C/c1ccc(O)c(O)c1)O[C@H](Cc1ccc(O)c(O)c1)C(=O)O [Rosmarinic acid, rosmarinic acid]	0.84 ± 0.17	1.12 ± 0.22	1.56 ± 0.13	1.14 ± 0.04
O=C(/C=C/c1ccc(O)c(O)c1/C=C/c1ccc(O)c(O)c1)O[C@H](Cc1ccc(O)c(O)c1)C(=O)O [Salvianolic acid A, salvianolic acid A]	0.84 ± 0.19	1.14 ± 0.31	1.13 ± 0.19	0.95 ± 0.44
